Source: ChEMBL document CHEMBL3507680, “University of Dundee, Gates Library screen for HepG2 cell viability”

Assay: Human HepG2 cell viability assay in 384 well format
Assay type: toxicity, cell-based
Set-up: dose 125 nL, time 70.5 hour; cytotoxicity at 70.5 h: concentration not given beside the values
Conditions: HepG2 cells, read-out: Inhibition

Row | SMILES | cytotoxicity at 70.5 h
1 | COc1ccc(-n2ncc3c2NC(=O)CSC3C(C)C)cc1 (stereo not given) | -3.9%
2 | O=C(CN1C(=O)CC2(CCCC2)C1=O)NCCc1nccs1 | -14.1%
3 | Cc1nn(-c2ccc(C(=O)O)cc2)c2c1C(c1ccsc1)SCC(=O)N2 (stereo not given) | -1.43%
4 | COCCn1ccc2c(C(=O)Nc3nc4c(s3)CCC4)cccc21 | -1.37%
5 | CC(C)CC1SCC(=O)Nc2c1cnn2-c1ccccc1F (stereo not given) | -22.8%
6 | CC(C)Cn1cc(C(=O)NC2CCS(=O)(=O)C2)c2ccccc2c1=O (stereo not given) | -13.3%
7 | Cc1cc(C)nc(N2CCC(C(=O)Nc3n[nH]c(C(C)C)n3)CC2)n1 | -11.5%
8 | Cn1ccc2cc(C(=O)Nc3nc[nH]n3)ccc21 | 15.8%
9 | Cc1cc(C)nc(-n2nc(C)c3c2NC(=O)CSC3c2cnn(C)c2)n1 (stereo not given) | -31.4%
10 | CC(C)c1nn2c(-c3cnn(C)c3)nnc2s1 | -9.47%
11 | Cn1ccc2ccc(C(=O)Nc3nc[nH]n3)cc21 | 13.7%
12 | Cc1cc(C)nc(N2CCC(C(=O)Nc3ncc[nH]3)CC2)n1 | -7.67%
13 | CN1CCN(CCCNC(=O)CCc2nc3cc(Br)cnc3[nH]2)CC1 | -31%
14 | COCc1nnc(NC(=O)c2cn(C(C)C)c3ccc(OC)cc23)s1 | -10.1%
15 | Cc1cc(O)cc(=O)n1CCCC(=O)Nc1n[nH]c2cc(Br)ccc12 | -13.4%
16 | CC(C)C1SCC(=O)Nc2c1cnn2-c1ccc(F)cc1 (stereo not given) | -1.99%
17 | Cc1nn(-c2ncccn2)c2c1C(c1cnn(C)c1C)SCC(=O)N2 (stereo not given) | -22.5%
18 | CC(C)C1SCC(=O)Nc2c1c(O)nn2C1CCCC1 (stereo not given) | -23.1%
19 | O=c1c(CN2CCCCCC2)coc(O)c1CN1CCOCC1 | -2.1%
20 | C[C@@H](O)CNC(=O)CCc1nc2cccnc2[nH]1 | -23.4%
21 | Cn1ccc2cc(C(=O)NC3CCS(=O)(=O)C3)ccc21 (stereo not given) | -10.9%
22 | COc1ccc2cc(NC(=O)CCNc3nc(C)cc(C)n3)cnc2c1 | -24.1%
23 | Cc1ccc(S(=O)(=O)c2ncccc2CN2CCOCC2)cc1 | -17.9%

Row | SMILES | cytotoxicity at 70.5 h
24 | O=C1CCC(c2ccccc2)=NN1CN1CCCCCC1 | -14%
25 | CC(C)CC1SCC(=O)Nc2c1cnn2C1CCCC1 (stereo not given) | -18.7%
26 | Cc1c(C2SCC(=O)Nc3c2c(O)nn3C(C)C)cnn1C (stereo not given) | -26.6%
27 | CC(C)n1ncc2c1NC(=O)CSC2C(F)(F)F (stereo not given) | -21%
28 | COc1ccc2cc(NC(=O)CCNc3ncccn3)cnc2c1 | -29.1%
29 | O=C(NCCc1nccs1)c1n[nH]c2c1CCC2 | -11.1%
30 | CC(C)n1cc(C(=O)NCC(CO)Cc2cccs2)cn1 (stereo not given) | -8.73%
31 | COCCN(C/C=C/c1ccccc1)Cc1[nH]cnc1C | 1.05%
32 | CN1C(=O)CC(C(=O)O)C12CCN(c1ccc3ccccc3n1)CC2 (stereo not given) | -4.07%
33 | CCCc1n[nH]cc1C(=O)N1CCCC(c2nccn2CC2CC2)C1 (stereo not given) | -6.16%
34 | O=C(NCc1cc2n(n1)CCCN(Cc1ccc(CO)o1)C2)C1CCC1 | 18.2%
35 | O=C1O[C@@H]2CN(S(=O)(=O)N3CCCC3)C[C@@H]2N1CCc1cccc(Cl)c1 | 0.28%
36 | COc1ccc(C(=O)N2CCN(C(=O)c3csc(C(C)C)n3)CC2)cc1 | 28%
37 | O=C(CCn1cncn1)N1C[C@H]2CC[C@@H]1CN(Cc1ccncc1)C2 | 16.7%
38 | CN(Cc1ccc2nonc2c1)C(=O)CCc1cc2n(n1)CCCNC2 | -6.8%
39 | CCN(C)C[C@@H]1CN(S(=O)(=O)c2ccc(OC)cc2)C[C@@H]1CO | 10.4%
40 | O=C1CCNC(=O)N1CC(=O)N1CCC1c1ccc(F)cc1 (stereo not given) | -10.7%
41 | CCC(CO)N(Cc1ccccn1)C(=O)c1ccc(F)c(F)c1 (stereo not given) | -6.83%
42 | Cc1nc(O)cc(CN2C[C@H](NC(=O)C3CCC3)[C@@H](C3CC3)C2)n1 | -3.55%
43 | CC(C)[C@H]1CN(Cc2c[nH]cn2)C[C@@H]1NC(=O)CC1CCC1 | -6.54%
44 | O=c1[nH]c(-c2ccccc2F)nc2c1CCNC2 | 14.4%
45 | Cn1ncc2c(N3CCC3)nc(-c3ccncc3)nc21 | 4.72%
46 | CCc1nnc(CN(CC)C(=O)C2CCC(=O)N(C3CCCC3)C2)o1 (stereo not given) | -4.66%

Row | SMILES | cytotoxicity at 70.5 h
47 | O=C(Nc1ccc2ncsc2c1)N1CCCN([C@H]2COC[C@@H]2O)CC1 | 0.731%
48 | CNc1nc(C)c(C(=O)N2CCCCC2CCc2ccccc2)s1 (stereo not given) | -5.18%
49 | NC(=O)CCC1CCCN(c2ncnc3c2Cc2ccccc2OC3)C1 (stereo not given) | -4.64%
50 | CCc1[nH]c2c(CNC(=O)C3CCS(=O)(=O)CC3)cc(C)cc2c1C | -7%
51 | COCc1ccccc1C(=O)N1CCCC1Cn1nc(C)cc1C (stereo not given) | 0.418%
52 | Cc1cc(C)n(CC2CCCN2C(=O)c2cccc3c2OCCO3)n1 (stereo not given) | -3.57%
53 | Cc1cnn(CC2CCCN2C(=O)c2cccc3[nH]ncc23)c1 (stereo not given) | 1.32%
54 | CC(C)c1nc(C2CCCN2C(=O)c2cnns2)no1 (stereo not given) | -1.79%
55 | Cc1cc(C)n(CC2CCCN2C(=O)c2cccc3c2OCO3)n1 (stereo not given) | -3.49%
56 | Cc1nc(C)n(C2CCCN(C(=O)c3ccc(OC(C)C)nc3)C2)n1 (stereo not given) | -0.207%
57 | Nc1nc(CN2CCCC2Cn2cncn2)nc2ccccc12 (stereo not given) | -2.37%
58 | c1ccc2c(N3CCCCC3Cn3cccn3)ncnc2c1 (stereo not given) | -1.4%
59 | Cc1nc(C)n(C2CCCN(C(=O)c3ccc(CN(C)C)cc3)C2)n1 (stereo not given) | -4.23%
60 | CC(=O)N1CCCN(C(=O)c2ccc(Cn3ccccc3=O)o2)CC1 | 2.33%
61 | CC(C)CN1CCN(C(=O)CCn2cccn2)CC1 | -1.87%
62 | CC(=O)N(Cc1ncc(C(C)C)o1)C1CCN(Cc2ccno2)C1 (stereo not given) | 1.29%
63 | CCc1ccc(C(CNC(=O)c2c(C)noc2C)N(C)C)cc1 (stereo not given) | 5.58%
64 | COc1ccccc1CC(=O)N1CCC(NCc2ccncc2)CC1 | -1.58%
65 | COc1ccccc1CC(=O)N1CCC(NCc2ccc(C)o2)CC1 | -11.2%
66 | CCCC1CCCN(C(=O)CCn2cccn2)CC1 (stereo not given) | 22.3%
67 | c1cnc(-c2nc(CN3CCCN(Cc4cccs4)CC3)cs2)nc1 | -3.19%
68 | CCc1nc(C2CCCN2Cc2nnc(C3CC3)o2)no1 (stereo not given) | -3.82%
69 | NC(=O)C1CCN(C(=O)NCc2csc(Br)c2)CC1 | -7.32%

Row | SMILES | cytotoxicity at 70.5 h
70 | CC(C)N1CCN(C(=O)c2ccc(Cn3ccccc3=O)o2)CC1 | -5.81%
71 | O=C(Nc1ccc(CCN2CCOCC2)cc1)C1CCCC1 | -3.35%
72 | O=C(NCCNc1ccccn1)Nc1cc(C(F)(F)F)c[nH]c1=O | -3.73%
73 | O=C(NCCc1cccnc1)Nc1cc(C(F)(F)F)c[nH]c1=O | 14.6%
74 | O=C(CCNc1ncccn1)Nc1cc(C(F)(F)F)c[nH]c1=O | -6.4%
75 | O=C(NCCC1=CCCCC1)Nc1cc(C(F)(F)F)c[nH]c1=O | 0.799%
76 | Cc1ccc(CCNC(=O)Nc2cc(C(F)(F)F)c[nH]c2=O)o1 | -4.56%
77 | O=C(NCCc1ccco1)Nc1cc(C(F)(F)F)c[nH]c1=O | -0.302%
78 | Cc1nc2n(n1)CC(NCc1nc(-c3ccccn3)no1)CC2 (stereo not given) | -5.58%
79 | CCOC(=O)c1sc2ccsc2c1CNC(=O)COC | 3.32%
80 | O=C(Nc1ccc(CCN2CCC(O)CC2)cc1)C1CCCCC1 | -2.92%
81 | O=C(c1ccc(Cn2ccccc2=O)o1)N1CCC2(CC1)OCCO2 | -2.65%
82 | CN(C)C(=O)c1cccc(CN2CCN(CCO)CC2)c1 | 38.5%
83 | CC(O)CN1CCN(Cc2cccc(C(=O)N3CCCCC3)c2)CC1 (stereo not given) | 17.1%
84 | CC(O)CN1CCC(CN(C)Cc2cccc(C(=O)N(C)C)c2)CC1 (stereo not given) | 12.1%
85 | CC(C)c1nc2c(n1C)CCN(Cc1nc(-c3ccco3)no1)C2 | -7.27%
86 | COCCc1noc(CN2CCOC(CN(C)C)C2)n1 (stereo not given) | -8.08%
87 | COc1c(CNC2CCc3ccccc32)c(C(C)C)nn1C (stereo not given) | -16.4%
88 | CN(C)CC1CN(Cc2nc(-c3cccnc3)no2)CCO1 (stereo not given) | -12.3%
89 | COc1c(CNC2CCOc3c(Cl)cccc32)c(C(C)C)nn1C (stereo not given) | 11.4%
90 | CCCc1nc(C(C)(C)NC(=O)C2CC(=O)N(CC)C2)no1 (stereo not given) | -13%
91 | NC(=O)C1CCN(C(=O)c2ccn(-c3ccc(F)cc3)n2)CC1 | 7.95%
92 | CCc1nc(C)c(C(=O)NCCNC(=O)Cc2cccc(F)c2)s1 | -6.24%

Row | SMILES | cytotoxicity at 70.5 h
93 | CC(C)(C)c1nc(C(C)(C)NC(=O)C2CC(=O)N(CC3CC3)C2)no1 (stereo not given) | -1.01%
94 | COc1cc(CNCC(O)c2ccccc2F)cc2c1OCO2 (stereo not given) | -14%
95 | CCCc1nc(C(C)(C)NC(=O)C2CC(=O)N(C3CCCC3)C2)no1 (stereo not given) | -11.9%
96 | COc1c(CNCCNC(=O)c2ccc(C)c(F)c2)c(C)nn1C | -4.84%
97 | CCOc1cc(C)nc(N2CCN(C(=O)c3cc[nH]n3)CC2)n1 | -3.5%
98 | Cc1nc(C(=O)N2CCCC(c3cc(C(F)(F)F)[nH]n3)C2)c[nH]1 (stereo not given) | -6.23%
99 | Cc1ccc(C(=O)N2CCCC(c3cc(C(F)(F)F)[nH]n3)C2)o1 (stereo not given) | -5.23%
100 | Cc1ccc(C(=O)NS(=O)(=O)c2ccccc2F)c(=O)[nH]1 | -1.46%
101 | Cc1ccc(CC(=O)N2CCOCC2c2ncon2)cc1 (stereo not given) | -5.42%
102 | CC1CCN(CCCNC(=O)NC(C)c2nncn2C)CC1 (stereo not given) | -3.78%
103 | Cn1ccc2c(C(=O)N3CCCC(c4nnc[nH]4)C3)cccc21 (stereo not given) | 4.32%
104 | CCc1nc(C2CCCN2CC(=O)NCCc2ccsc2)no1 (stereo not given) | 0.0583%
105 | CCOC1CCCN(C(=O)c2nn(-c3ccccc3F)cc2O)C1 (stereo not given) | -3.95%
106 | C=C(Br)CN(C)C1CCN(CCc2ccccn2)CC1 | -6.85%
107 | Cc1nc(CN2CCCC(N(C)CC3(O)CCCCC3)C2)no1 (stereo not given) | 0.0355%
108 | CCc1noc(CN(C)CC(c2cccs2)N2CCOCC2)n1 (stereo not given) | -1.63%
109 | Cc1noc(CN(C)CC(c2cccs2)N2CCOCC2)n1 (stereo not given) | -4.96%
110 | N#Cc1cc(F)ccc1CN1CCCCC1Cn1cccn1 (stereo not given) | -1.56%
111 | N#Cc1ccc(CN2CCCC2Cn2cccn2)cc1 (stereo not given) | 2.25%
112 | CC1COCCN1C(=O)Nc1cnc2c(cnn2C(C)C)c1 (stereo not given) | -2.52%
113 | COc1cc(CNCC(O)c2ccccc2)cc2c1OCO2 (stereo not given) | 3.15%
114 | COc1c(CNCCNC(=O)c2ccccc2)c(C)nn1C | -1.1%
115 | COc1c(CNCCNC(=O)c2cccc(C)c2)c(C)nn1C | 3.54%
